Results on 16 molecules are retold here after US10526325B2, “Bicyclic heterocyclic derivatives” (Merck Patent GmbH, priority 2015, dated 2020).

Assay [1] has as its system PDH-E1alpha (pSer300) in HEK293T cells. Nature of the assay: Cellular immunofluorescence assay, PDH-E1alpha (pSer300) in HEK293T cells. It is filed as cell-based, human. Conditions: Homo sapiens, HEK-293T, 5 hours incubation, anti-PDH-E1alpha (pSer300) immunofluorescence, read-out: IC50 (cell data). The protocol:
Cellular Assay for Determination of Compound Activities
Compound activities were determined in a cellular immunofluorescence assay. Human HEK293T cells were seeded into black 384-well plates with clear bottom and grown overnight.
Next day, test compounds were added to the wells and the plates incubated for 5 hours. Following this, cells were fixed with formaldehyde, permeabilised and blocked. The primary antibody, Anti-PDH-E1alpha (pSer300), AP1064 (Merck Millipore) was added and incubated overnight in the plate wells. Next, cells were washed and the secondary antibody, Alexa Fluor 488, goat anti-rabbit ab (A-11008, Invitrogen) was added together with Hoechst 33258 (H3569, Invitrogen) and incubated for 1 hour in the plate wells. Finally, cells were washed and the plates were measured on the laser scanning cytometer acumen hci (TTpLabtech).
The raw data were normalized against a pharmacological inhibitor control and dose response curves were generated by plotting the percent effect values using the software package Genedata screener (Genedata).

The next assay deals with PDHK2 (Homo sapiens (Human), UniProt Q15119). As to the kind of experiment: Biochemical activity testing of PDHK2: PDC inactivation assay. Conditions: human rec PDHK2, porcine heart PDC, 5 μM ATP, read-out: IC50 PDHK2 (enzyme assay). An excerpt:
Biochemical Activity Testing of PDHK2: PDC Inactivation Assay
The biochemical activity assay for PDHK2 is based on the inactivation of PDC through phosphorylation by PDHK2. The assay is run in two steps: the enzymatic PDHK2 reaction in which isolated PDC is phosphorylated by PDHK2 with ATP as co-substrate and the PDC activity assay in which pyruvate and NAD are converted to acetyl-CoA and NADH. The PDC activity correlates to the increase in NADH and thereby is detectable directly via the increasing fluorescence signal (Exc 340 nm, Em 450 nm). Inhibition of PDHK2 results in a lower phosphorylation status and thereby a less decrease in activity of PDC and a stronger increase in NADH fluorescence signal.
The PDC inactivation assay is performed in Greiner 384-well microtiter plates and is used for high throughput screen. 4 μl of PDHK2 (human, rec, Carna Bioscience, 10 ng/μl-137 nM final concentration) and PDC (isolated from porcine heart, Sigma-Aldrich, 20 mU/ml final concentration) are incubated in the absence or presence of the test compound (10 dilution concentrations) for 30 min at room temperature in kinase buffer (15 mM potassium phosphate buffer, pH 7.0, 60 mM KCl, 1.5 mM DTT, 2.5 mM MgCl2, 0.0125% (w/v) BSA, 0.125% Pluronic F-68). The kinase reaction is started by the addition of 4 μl ATP substrate solution (fc 5 μM in kinase buffer). After 30 min incubation at 37° C. 40 μl of PDC reaction solution (100 mM Tris/HCl, pH 7.8, 0.5 mM EDTA, 1 mM MgCl2, 50 mM NaF, 0.25 mM Coenzyme A, 5 mM pyruvate, 1 mM NAD, 5 mM DTT, 1 mM thiamine pyrophosphate) is added. The first fluorescence measurement is performed on a Perkin Elmer Envision (Exc 340 nm, Em 450 nm). The reaction is incubated for 45 min at room temperature. Afterwards a second fluorescence measurement is performed and the PDC activity is calculated by the difference between both measurements. As full value for the PDHK2 assay the inhibitor-free PDHK2 reaction is used. The pharmacological zero value used is DCA (Sigma-Aldrich) in a final concentration of 3 mM. The inhibitory values […] were determined using either the program Symyx Assay Explorer® or Condosseo® from GeneData.

For a further assay, the target named is human PDHK2 (12-407) (Homo sapiens (Human), UniProt Q15119). Nature of the assay: Isothermal titration calorimetry (ITC) binding. Conditions: ITC at 30° C., pH 7.5. On the procedure: Isothermal Titration Calorimetry
ITC measurements were performed with a VP-ITC micro calorimeter (Microcal, LLC/GE Healthcare Bio-Sciences Aft Uppsala, Sweden). In general titrations were performed by titrating the protein (50 μM) to the test compound (5 μM) in 12 μl injections. All binding experiments were carried out at 30° C. In general the test compounds were diluted form DMSO stock solutions into the measurement buffer with a maximum final concentration of 1% DMSO. The measurement buffer was 20 mM HEPES, 135 mM KCl, 1 mM TCEP, 2 mM MgCl2, 15 mM NaH2PO4, pH 7.5. The human PDHK2 (12-407) was produced in E. coli as his-tagged protein and purified by affinity chromatography. The tag was removed by side specific proteolysis. Before titration the protein buffer was changed to the measurement buffer containing the same DMSO concentration as the test compound dilution. ITC data analysis was performed using Origin 7 calorimetry software from the same supplier. For most measurements a binding model of one binding site was assumed. According to the applied mathematical model it is possible to calculate the binding constant (KA), the observed binding enthalpy (ΔH^obs) as well as the stoichiometry (N) of the formed complex.
Preceding analysis the raw data was corrected for the heats of dilution by extrapolating from the saturation value from the end of titration. In order to allow for direct comparison between the respective experimental series and protein preparations the protein concentration was corrected by referencing titrations to a well behaved standard inhibitor. The apparent stoichiometry values defined the fraction of binding competent protein and compensated for relative errors in protein concentration measurements. This corrected protein concentration was used to set up ITC experiment series with test compounds. Any deviations from ideal 1:1 stoichiometry observed here were attributed to errors in compound concentration. This nominal compound concentration was corrected as well to achieve 1:1 stoichiometry in the fit.
For orientation: ITC needs no label: the signal is the heat of the interaction.

As for `C[C@@H]1CN(C(=O)[C@@](C)(O)C(F)(F)F)Cc2cn[nH]c21` [Compound A28, (R)-3,3,3-Trifluoro-2-hydroxy-2-methyl-1-((R)-7-methyl-1,4,6,7-tetrahydro-pyrazolo[4,3-c]pyridin-5-yl)-propan-1-one], the IC50 (usually the point on the concentration scale where inhibition reaches its midpoint) fell in the range of 3000 to 50000 nM in assay [1] and 300 to 3000 nM at PDHK2. The Kd (as a rule, a measure of binding affinity in units of concentration) at human PDHK2 (12-407) is < 300 nM.
For `C[C@@](O)(C(=O)N1CCc2c(nnn2-c2ccc(F)cc2)C1)C(F)(F)F` [Compound A47, (R)-3,3,3-Trifluoro-1-[1-(4-fluoro-phenyl)-1,4,6,7-tetrahydro-[1,2,3]triazolo[4,5-c]pyridin-5-yl]-2-hydroxy-2-methyl-propan-1-one], in that order: 3000 to 50000 nM, 300 to 3000 nM and < 300 nM.
The matching figures for `C[C@@](O)(C(=O)N1CCn2c(cnc2-c2ccccc2)C1)C(F)(F)F` [Compound A50, (R)-3,3,3-Trifluoro-2-hydroxy-2-methyl-1-(3-phenyl-5,6-dihydro-8H-imidazo-[1,5-a]pyrazin-7-yl)-propan-1-one]: 3000 to 50000 nM, 300 to 3000 nM and < 300 nM.
As to `C[C@H]1CN(C(=O)[C@@](C)(O)C(F)(F)F)Cc2cnn(-c3ccccc3)c21` [Compound A19, (R)-3,3,3-Trifluoro-2-hydroxy-2-methyl-1-((S)-7-methyl-1-phenyl-1,4,6,7-tetrahydro-pyrazolo[4,3-c]pyridin-5-yl)-propan-1-one], the IC50 (in assay [1]; at PDHK2) was 300 to 3000 nM each time.
Take `CC1CN(C(=O)[C@@](C)(O)C(F)(F)F)Cc2cnn(-c3ccc(F)cc3)c21` (stereo partly drawn) [Compound A12, (2R)-3,3,3-trifluoro-1-[1-(4-fluorophenyl)-7-methyl-6,7-dihydro-4H-pyrazolo[4,3-c]pyridin-5-yl]-2-hydroxy-2-methyl-propan-1-one]: the half-maximal inhibitory concentration (IC50) (in assay [1]; on PDHK2) was < 300 nM throughout. The Kd at human PDHK2 (12-407) was < 300 nM.
For the molecule `C[C@@H]1CN(C(=O)[C@@](C)(O)C(F)(F)F)Cc2cnc(-c3ncc(F)cc3F)n21` [Compound A57, (R)-1-[(R)-3-(3,5-Difluoro-pyridin-2-yl)-5-methyl-5,6-dihydro-8H-imidazo[1,5-a]pyrazin-7-yl]-3,3,3-trifluoro-2-hydroxy-2-methyl-propan-1-one], the IC50 is < 300 nM in assay [1] and 300 to 3000 nM at PDHK2. Also, the dissociation constant Kd on human PDHK2 (12-407) was < 300 nM.
In the case of `CC1CN(C(=O)[C@@](C)(O)C(F)(F)F)Cc2cnn(-c3ccc(Cl)cc3)c21` (stereo partly drawn) [Compound A9, (2R)-1-[1-(4-chlorophenyl)-7-methyl-6,7-dihydro-4H-pyrazolo[4,3-c]pyridin-5-yl]-3,3,3-trifluoro-2-hydroxy-2-methyl-propan-1-one], the 50% inhibitory concentration (IC50) (in assay [1]; at PDHK2) was < 300 nM in each case. In addition, at human PDHK2 (12-407), the Kd was < 300 nM.
On to `C[C@@H]1CN(C(=O)[C@@](C)(O)C(F)(F)F)Cc2cnn(C3CCC(O)CC3)c21` (stereo partly drawn) [Compound A38, (R)-3,3,3-Trifluoro-2-hydroxy-1-[(R)-1-(4-hydroxy-cyclohexyl)-7-methyl-1,4,6,7-tetrahydro-pyrazolo[4,3-c]pyridin-5-yl]-2-methyl-propan-1-one], for which the half-maximal inhibitory concentration (IC50) (in assay [1]; at PDHK2) was < 300 nM in each case. In addition, at human PDHK2 (12-407), the Kd is < 300 nM.
Regarding `C[C@@H]1CN(C(=O)[C@@](C)(O)C(F)(F)F)Cc2cnn(-c3ccccc3F)c21` [Compound A24, (R)-3,3,3-Trifluoro-1-[(R)-1-(2-fluoro-phenyl)-7-methyl-1,4,6,7-tetrahydro-pyrazolo[4,3-c]pyridin-5-yl]-2-hydroxy-2-methyl-propan-1-one], the IC50 (in assay [1]; on PDHK2) was < 300 nM each time. In addition, on human PDHK2 (12-407), the Kd was < 300 nM.
For `CC(C)(C)n1cc2c(n1)CCN(C(=O)[C@@](C)(O)C(F)(F)F)C2` [Compound A8, (R)-1-(2-tert-Butyl-2,4,6,7-tetrahydro-pyrazolo[4,3-c]pyridin-5-yl)-3,3,3-trifluoro-2-hydroxy-2-methyl-propan-1-one], the IC50 in assay [1] was 3000 to 50000 nM; on PDHK2 it was 300 to 3000 nM. Further, the equilibrium dissociation constant (Kd) on human PDHK2 (12-407) was 300 to 3000 nM.
With `C[C@@H]1CN(C(=O)[C@@](C)(O)C(F)(F)F)Cc2cnc(-c3ccc(F)cc3)n21` [Compound A52, (R)-3,3,3-Trifluoro-1-[(R)-3-(4-fluoro-phenyl)-5-methyl-5,6-dihydro-8H-imidazo[1,5-a]pyrazin-7-yl]-2-hydroxy-2-methyl-propan-1-one], the IC50 (in assay [1]; at PDHK2) was < 300 nM in each case. The dissociation constant (Kd) at human PDHK2 (12-407) is < 300 nM.
As for `C[C@@H]1CN(C(=O)[C@@](C)(O)C(F)(F)F)Cc2cnc(-c3ccc(F)cc3F)n21` [Compound A54, (R)-1-[(R)-3-(2,4-Difluoro-phenyl)-5-methyl-5,6-dihydro-8H-imidazo[1,5-a]pyrazin-7-yl]-3,3,3-trifluoro-2-hydroxy-2-methyl-propan-1-one], the IC50 (in assay [1]; on PDHK2) was < 300 nM in each case. Also, the Kd at human PDHK2 (12-407) is < 300 nM.
On to `C[C@@H]1CN(C(=O)[C@@](C)(O)C(F)(F)F)Cc2cnn(-c3ccc(F)cn3)c21` [Compound A40, (R)-3,3,3-Trifluoro-1-[(R)-1-(5-fluoro-pyridin-2-yl)-7-methyl-1,4,6,7-tetrahydro-pyrazolo[4,3-c]pyridin-5-yl]-2-hydroxy-2-methyl-propan-1-one], for which the concentration for half-maximal inhibition (IC50) (in assay [1]; on PDHK2) was < 300 nM in each case. Also, at human PDHK2 (12-407), the Kd was < 300 nM.
For the molecule `C[C@@](O)(C(=O)N1CCc2nn(-c3ccc(F)cc3F)cc2C1)C(F)(F)F` [Compound A6, (R)-1-[2-(2,4-Difluoro-phenyl)-2,4,6,7-tetrahydro-pyrazolo[4,3-c]pyridin-5-yl]-3,3,3-trifluoro-2-hydroxy-2-methyl-propan-1-one], the half-maximal inhibitory concentration (IC50) lay in the range of 3000 to 50000 nM in assay [1] and 300 to 3000 nM at PDHK2. Besides, the dissociation constant (Kd) at human PDHK2 (12-407) is < 300 nM.
For `C[C@@](O)(C(=O)N1CCc2c(ncn2-c2ccc(F)cc2)C1)C(F)(F)F` [Compound A44, (R)-3,3,3-Trifluoro-1-[1-(4-fluoro-phenyl)-1,4,6,7-tetrahydro-imidazo[4,5-c]pyridin-5-yl]-2-hydroxy-2-methyl-propan-1-one], the IC50 in assay [1] is 3000 to 50000 nM; at PDHK2, 300 to 3000 nM.
For `C[C@@](O)(C(=O)N1CCc2c(ncn2-c2ccc(Cl)cc2)C1)C(F)(F)F` [Compound A45, (R)-1-[1-(4-Chloro-phenyl)-1,4,6,7-tetrahydro-imidazo[4,5-c]pyridin-5-yl]-3,3,3-trifluoro-2-hydroxy-2-methyl-propan-1-one], in that order: 3000 to 50000 nM and 300 to 3000 nM.
